Source: PubChem BioAssay AID1259407 (Chemical Carcinogenesis Research Information System (CCRIS), 2018)
Calls of active or inactive are those of the source. No rule for the calls is given here.

System: CCRIS mutagenicity, Ames/micronucleus/aberration tests
Test: CCRIS mutagenicity studies
[1] = Test System: AMES SALMONELLA TYPHIMURIUM, Strain/Indicator: TA100, Metabolic Activation: NONE, Method: PREINCUBATION
[2] = Test System: AMES SALMONELLA TYPHIMURIUM, Strain/Indicator: TA98, Metabolic Activation: NONE, Method: STANDARD PLATE
[3] = Test System: AMES SALMONELLA TYPHIMURIUM, Strain/Indicator: TA100, Metabolic Activation: NONE, Method: STANDARD PLATE

Compound: C=C1[C@@H](O)[C@@H]2O[C@]3(CC[C@H](/C=C/[C@@H](C)[C@@H]4CC(C)=C[C@@]5(O[C@H](C[C@@](C)(O)C(=O)O)CCC5O)O4)O3)CC[C@H]2O[C@@H]1[C@@H](O)C[C@H](C)[C@H]1O[C@@]2(CCCCO2)CC[C@H]1C (some centres undefined)
- mutagenic call (End Point: IN VITRO MICRONUCLEUS, Test System: HUMAN PERIPHERAL LYMPHOCYTES, Metabolic Activation: NONE): active; positive
- mutagenic call (End Point: In vitro micronucleus, Test System: Chinese hamster ovary (CHO-K1) cells, Metabolic Activation: None): inactive; negative
- mutagenic call (End Point: In vitro micronucleus, Test System: Chinese hamster ovary (CHO-K1) cells, Metabolic Activation: Rat, Liver, S-9, Phenobarbital and beta-naphthoflavone): active; positive
- mutagenic call (End Point: In vitro micronucleus, Test System: Chinese hamster ovary (CHO-K1) cells, Metabolic Activation: Rat, Liver, S-9, Phenobarbital and beta-naphthoflavone, heat inactivated): inactive; negative
- mutagenic call (End Point: In vitro micronucleus, Test System: Chinese hamster ovary (CHO-K1) cells, Metabolic Activation: Rat, Liver, S-9, Phenobarbital and beta-naphthoflavone, Method: FISH (fluorescein isothiocyanate isomer 1 (FITC)-conjugated peptide nucleic acid probe)): active; positive (dose-dependent increase in percentage of centromer-positive micronucle
- mutagenic call (End Point: In vitro micronucleus, Test System: Human colon carcinoma Caco-2 cells, Metabolic Activation: None): active; positive
- mutagenic call (Test System: AMES SALMONELLA TYPHIMURIUM, Strain/Indicator: TA98, Metabolic Activation: S-9, Method: PREINCUBATION): inactive; negative
- mutagenic call (Test System: AMES SALMONELLA TYPHIMURIUM, Strain/Indicator: TA100, Metabolic Activation: S-9, Method: PREINCUBATION): inactive; negative
- mutagenic call (Test System: CHINESE HAMSTER V-79, Strain/Indicator: V-79 (HGPRT)/6-THIOGUANINE, Metabolic Activation: NONE): active; positive
- mutagenic call (Test System: CHINESE HAMSTER V-79, Strain/Indicator: V-79 (HGPRT)/6-THIOGUANINE, Metabolic Activation: RAT, LIVER, HEPATOCYTES): inactive; negative

Compound: CCCCOP(=O)(OCCCC)Oc1ccccc1
- mutagenic call (Test System: AMES SALMONELLA TYPHIMURIUM, Strain/Indicator: TA97, Metabolic Activation: HAMSTER, LIVER, S-9, AROCLOR 1254 (10%), Method: PREINCUBATION): inactive; negative
- mutagenic call (Test System: AMES SALMONELLA TYPHIMURIUM, Strain/Indicator: TA97, Metabolic Activation: HAMSTER, LIVER, S-9, AROCLOR 1254 (30%), Method: PREINCUBATION): inactive; negative
- mutagenic call (Test System: AMES SALMONELLA TYPHIMURIUM, Strain/Indicator: TA97, Metabolic Activation: NONE, Method: PREINCUBATION): inactive; negative
- mutagenic call (Test System: AMES SALMONELLA TYPHIMURIUM, Strain/Indicator: TA97, Metabolic Activation: RAT, LIVER, S-9, AROCLOR 1254 (10%), Method: PREINCUBATION): inactive; negative
- mutagenic call (Test System: AMES SALMONELLA TYPHIMURIUM, Strain/Indicator: TA97, Metabolic Activation: RAT, LIVER, S-9, AROCLOR 1254 (30%), Method: PREINCUBATION): inactive; negative
- mutagenic call (Test System: AMES SALMONELLA TYPHIMURIUM, Strain/Indicator: TA98, Metabolic Activation: HAMSTER, LIVER, S-9, AROCLOR 1254 (10%), Method: PREINCUBATION): inactive; negative
- mutagenic call (Test System: AMES SALMONELLA TYPHIMURIUM, Strain/Indicator: TA98, Metabolic Activation: HAMSTER, LIVER, S-9, AROCLOR 1254 (30%), Method: PREINCUBATION): inactive; negative
- mutagenic call (Test System: AMES SALMONELLA TYPHIMURIUM, Strain/Indicator: TA98, Metabolic Activation: NONE, Method: PREINCUBATION): inactive; negative
- mutagenic call (Test System: AMES SALMONELLA TYPHIMURIUM, Strain/Indicator: TA98, Metabolic Activation: RAT, LIVER, S-9, AROCLOR 1254 (10%), Method: PREINCUBATION): inactive; negative
- mutagenic call (Test System: AMES SALMONELLA TYPHIMURIUM, Strain/Indicator: TA98, Metabolic Activation: RAT, LIVER, S-9, AROCLOR 1254 (30%), Method: PREINCUBATION): inactive; negative
- mutagenic call (Test System: AMES SALMONELLA TYPHIMURIUM, Strain/Indicator: TA100, Metabolic Activation: HAMSTER, LIVER, S-9, AROCLOR 1254 (10%), Method: PREINCUBATION): inactive; negative
- mutagenic call (Test System: AMES SALMONELLA TYPHIMURIUM, Strain/Indicator: TA100, Metabolic Activation: HAMSTER, LIVER, S-9, AROCLOR 1254 (30%), Method: PREINCUBATION): inactive; negative
- mutagenic call [1]: inactive; negative
- mutagenic call (Test System: AMES SALMONELLA TYPHIMURIUM, Strain/Indicator: TA100, Metabolic Activation: RAT, LIVER, S-9, AROCLOR 1254 (10%), Method: PREINCUBATION): inactive; negative
- mutagenic call (Test System: AMES SALMONELLA TYPHIMURIUM, Strain/Indicator: TA100, Metabolic Activation: RAT, LIVER, S-9, AROCLOR 1254 (30%), Method: PREINCUBATION): inactive; negative
- mutagenic call (Test System: AMES SALMONELLA TYPHIMURIUM, Strain/Indicator: TA1535, Metabolic Activation: HAMSTER, LIVER, S-9, AROCLOR 1254 (10%), Method: PREINCUBATION): inactive; negative
- mutagenic call (Test System: AMES SALMONELLA TYPHIMURIUM, Strain/Indicator: TA1535, Metabolic Activation: HAMSTER, LIVER, S-9, AROCLOR 1254 (30%), Method: PREINCUBATION): inactive; negative
- mutagenic call (Test System: AMES SALMONELLA TYPHIMURIUM, Strain/Indicator: TA1535, Metabolic Activation: NONE, Method: PREINCUBATION): inactive; negative
- mutagenic call (Test System: AMES SALMONELLA TYPHIMURIUM, Strain/Indicator: TA1535, Metabolic Activation: RAT, LIVER, S-9, AROCLOR 1254 (10%), Method: PREINCUBATION): inactive; negative
- mutagenic call (Test System: AMES SALMONELLA TYPHIMURIUM, Strain/Indicator: TA1535, Metabolic Activation: RAT, LIVER, S-9, AROCLOR 1254 (30%), Method: PREINCUBATION): inactive; negative

Compound: CC1(C)C[C@H]2C=C(C=O)[C@]3(C=O)C[C@]3(C)[C@H]2C1
- mutagenic call [2]: active; positive
- mutagenic call [3]: active; positive
- mutagenic call (Test System: AMES SALMONELLA TYPHIMURIUM, Strain/Indicator: TA2637, Metabolic Activation: NONE, Method: STANDARD PLATE): active; positive
- mutagenic call (Test System: CHINESE HAMSTER V-79, Strain/Indicator: V-79/6-THIOGUANINE (HGPRT), Metabolic Activation: NONE): active; positive

Compound: CC1=C2C(=CO[C@H](C)[C@H]2C)C(=O)C(C(=O)O)=C1O
- mutagenic call (End Point: In vivo chromosomal aberrations, Test System: Bone marrow cells, Species: Mouse, Strain/Sex: Balb/C / Male, Route: Intraperitoneal): active; positive (structural changes)
- mutagenic call (Test System: AMES SALMONELLA TYPHIMURIUM, Strain/Indicator: TA97, Metabolic Activation: NONE, Method: STANDARD PLATE): inactive; negative
- mutagenic call (Test System: AMES SALMONELLA TYPHIMURIUM, Strain/Indicator: TA97, Metabolic Activation: RAT LIVER S-9, AROCLOR 1254, Method: STANDARD PLATE): inactive; negative
- mutagenic call [2]: inactive; negative
- mutagenic call (Test System: AMES SALMONELLA TYPHIMURIUM, Strain/Indicator: TA98, Metabolic Activation: RAT LIVER S-9, AROCLOR 1254, Method: STANDARD PLATE): inactive; negative
- mutagenic call [1]: inactive; negative
- mutagenic call [3]: inactive; negative
- mutagenic call (Test System: AMES SALMONELLA TYPHIMURIUM, Strain/Indicator: TA100, Metabolic Activation: RAT LIVER S-9, AROCLOR 1254, Method: STANDARD PLATE): inactive; negative
- mutagenic call (Test System: AMES SALMONELLA TYPHIMURIUM, Strain/Indicator: TA100, Metabolic Activation: RAT, LIVER, S-9, PHENOBARBITAL, Method: PREINCUBATION): inactive; negative
- mutagenic call (Test System: AMES SALMONELLA TYPHIMURIUM, Strain/Indicator: TA102, Metabolic Activation: NONE, Method: STANDARD PLATE): inactive; negative
- mutagenic call (Test System: AMES SALMONELLA TYPHIMURIUM, Strain/Indicator: TA102, Metabolic Activation: RAT, LIVER, S-9, AROCLOR 1254, Method: STANDARD PLATE): inactive; negative
- mutagenic call (Test System: AMES SALMONELLA TYPHIMURIUM, Strain/Indicator: TA1535, Metabolic Activation: NONE, Method: STANDARD PLATE): inactive; negative
- mutagenic call (Test System: AMES SALMONELLA TYPHIMURIUM, Strain/Indicator: TA1535, Metabolic Activation: RAT LIVER S-9, AROCLOR 1254, Method: STANDARD PLATE): inactive; negative
- mutagenic call (Test System: AMES SALMONELLA TYPHIMURIUM, Strain/Indicator: TA1537, Metabolic Activation: NONE, Method: STANDARD PLATE): inactive; negative
- mutagenic call (Test System: AMES SALMONELLA TYPHIMURIUM, Strain/Indicator: TA1537, Metabolic Activation: RAT LIVER S-9, AROCLOR 1254, Method: STANDARD PLATE): inactive; negative
